Residues, ends and D or L forms follow the SMILES beside them.
Tested on: antibody-producing Chinese Hamster Ovary (CHO) cell (subclone DG44)
Test: viable cell density in CHO cell culture with increasing Gln-Asn dipeptide (OFAT)
Assay type: cell-based
Procedure: The effect of the Gln-Asn dipeptide on an antibody-producing Chinese Hamster Ovary (CHO) cell (subclone DG44; Life Technologies Corporation, Carlsbad, USA) was investigated using one-factor-at-a-time (OFAT) analysis.
The analysis was based on a comparison of the viable cell density and cell viability in a series of cell cultures, which were conducted at substantially identical culturing conditions, however, with increasing amounts of the Gln-Asn dipeptide in the medium. In order to keep the total amounts of Asn and Gln units (molar basis) in the various culture media constant, the molar concentration of free glutamine and free asparagine was reduced in accordance with the molar amount of the dipeptide added. A series of culture media having increasing amounts of the Gln-Asn dipeptide was prepared by mixing varying amounts of a Base Medium (comprising free Asn and Gln) and a Test Medium (comprising Asn-Gln dipeptide). A commercially available defined cell culture medium (TC-42, TeutoCell AG, Bielefeld, Germany) served as the Base Medium. (Any other suitable cell culture medium could be used.) A Test Medium (TC-42-EVO) was prepared so as to have identical nutrient concentrations compared to the Base Medium, however, instead of free Asn the Test Medium contained an equimolar amount (5.4 mM) of Gin-Asn dipeptide. Furthermore, the free Gln concentration in the Test Medium was set to a value such that the total concentration of Gln units in the Test Medium (i.e., free Gln and dipeptide-Gln) matched the concentration of free Gln in the Base Medium. All other nutrient concentrations in the Test Medium were the same as in the Base Medium. The Base Medium contained 1461.5 mg/l free Gln and 612 mg/l free Asn.
Six cell cultivations were then conducted with media containing varying amounts of the Test Medium and the Base Medium in the following proportions:
All media were set to pH 8.3. Salinity of the culture media was set to 285 mOsmol/kg with NaCl. All cultivations were conducted in on a rotary shaker under identical culture conditions (temperature, humidity, rpm, CO2, etc.), using standard cell culture methods. Three passages of a cell culture are conducted and viable cell density (VCD; 10^6 viable cells/ml) and cell viability (%) was followed in duplicate determinations, using […] determination.
A correlation of the maximum viable cell density (third passage) with the concentration of the dipeptide is observed. The greatest maximum viable cell density is obtained in cultivation #1, i.e., in the cultivation in which all Asn is provided in the form of the Asn-containing dipeptide. The lowest maximum viable cell density is obtained in cultivation #6, i.e., in the cultivation in which all of the Asn in provided as free amino acid. Furthermore, it can be seen that the increased viable cell density is maintained over an extended period of time (day 13 through day 18).

Q: What does the source list for `NC(=O)CC[C@H](N)C(=O)N[C@@H](CC(N)=O)C(=O)O` [Gln-Asn, L-glutaminyl-L-asparagine] (H-Gln-Asn-OH)?
A: viable cell density (0.3 mM dipeptide (#5), time 0): 0.285 10^6 cells/ml; viable cell density (0.3 mM dipeptide (#5), time 0.89): 0.485 10^6 cells/ml; viable cell density (0.3 mM dipeptide (#5), time 3.08): 1.985 10^6 cells/ml; viable cell density (0.3 mM dipeptide (#5), time 3.71): 3.325 10^6 cells/ml; viable cell density (0.3 mM dipeptide (#5), time 4.08): 0.265 10^6 cells/ml; viable cell density (0.3 mM dipeptide (#5), time 4.70): 1.12 10^6 cells/ml; viable cell density (0.3 mM dipeptide (#5), time 5.69): 1.555 10^6 cells/ml; viable cell density (0.3 mM dipeptide (#5), time 6.88): 3.8 10^6 cells/ml; viable cell density (0.3 mM dipeptide (#5), time 7.04): 0.31 10^6 cells/ml; viable cell density (0.3 mM dipeptide (#5), time 7.80): 1.17 10^6 cells/ml; viable cell density (0.3 mM dipeptide (#5), time 8.78): 2.01 10^6 cells/ml; viable cell density (0.3 mM dipeptide (#5), time 9.82): 3.9 10^6 cells/ml; viable cell density (0.3 mM dipeptide (#5), time 10.99): 6.065 10^6 cells/ml; viable cell density (0.3 mM dipeptide (#5), time 12.02): 8.21 10^6 cells/ml; viable cell density (0.3 mM dipeptide (#5), time 12.75): 7.135 10^6 cells/ml; viable cell density (0.3 mM dipeptide (#5), time 13.89): 5.13 10^6 cells/ml; viable cell density (0.3 mM dipeptide (#5), time 14.74): 5.54 10^6 cells/ml; viable cell density (0.3 mM dipeptide (#5), time 15.79): 4.075 10^6 cells/ml; viable cell density (0.3 mM dipeptide (#5), time 16.89): 2.775 10^6 cells/ml; viable cell density (0.3 mM dipeptide (#5), time 18.06): 1.825 10^6 cells/ml; viable cell density (0.8 mM dipeptide (#4), time 0): 0.27 10^6 cells/ml; viable cell density (0.8 mM dipeptide (#4), time 0.89): 0.565 10^6 cells/ml; viable cell density (0.8 mM dipeptide (#4), time 3.08): 2.285 10^6 cells/ml; viable cell density (0.8 mM dipeptide (#4), time 3.71): 3.4 10^6 cells/ml; viable cell density (0.8 mM dipeptide (#4), time 4.08): 0.365 10^6 cells/ml; viable cell density (0.8 mM dipeptide (#4), time 4.70): 0.665 10^6 cells/ml; viable cell density (0.8 mM dipeptide (#4), time 5.69): 1.545 10^6 cells/ml; viable cell density (0.8 mM dipeptide (#4), time 6.88): 3.36 10^6 cells/ml; viable cell density (0.8 mM dipeptide (#4), time 7.04): 0.32 10^6 cells/ml; viable cell density (0.8 mM dipeptide (#4), time 7.80): 1.12 10^6 cells/ml; viable cell density (0.8 mM dipeptide (#4), time 8.78): 1.86 10^6 cells/ml; viable cell density (0.8 mM dipeptide (#4), time 9.82): 3.6 10^6 cells/ml; viable cell density (0.8 mM dipeptide (#4), time 10.99): 6.31 10^6 cells/ml; viable cell density (0.8 mM dipeptide (#4), time 12.02): 7.805 10^6 cells/ml; viable cell density (0.8 mM dipeptide (#4), time 12.75): 7.545 10^6 cells/ml; viable cell density (0.8 mM dipeptide (#4), time 13.89): 5.86 10^6 cells/ml; viable cell density (0.8 mM dipeptide (#4), time 14.74): 5.26 10^6 cells/ml; viable cell density (0.8 mM dipeptide (#4), time 15.79): 4.065 10^6 cells/ml; viable cell density (0.8 mM dipeptide (#4), time 16.89): 3.175 10^6 cells/ml; viable cell density (0.8 mM dipeptide (#4), time 18.06): 2.3 10^6 cells/ml; viable cell density (1.4 mM dipeptide (#3), time 0): 0.265 10^6 cells/ml; viable cell density (1.4 mM dipeptide (#3), time 0.89): 0.495 10^6 cells/ml; viable cell density (1.4 mM dipeptide (#3), time 3.08): 1.8 10^6 cells/ml; viable cell density (1.4 mM dipeptide (#3), time 3.71): 2.415 10^6 cells/ml; viable cell density (1.4 mM dipeptide (#3), time 4.08): 0.315 10^6 cells/ml; viable cell density (1.4 mM dipeptide (#3), time 4.70): 0.65 10^6 cells/ml; viable cell density (1.4 mM dipeptide (#3), time 5.69): 1.47 10^6 cells/ml; viable cell density (1.4 mM dipeptide (#3), time 6.88): 3.365 10^6 cells/ml; viable cell density (1.4 mM dipeptide (#3), time 7.04): 0.33 10^6 cells/ml; viable cell density (1.4 mM dipeptide (#3), time 7.80): 0.77 10^6 cells/ml; viable cell density (1.4 mM dipeptide (#3), time 8.78): 1.615 10^6 cells/ml; viable cell density (1.4 mM dipeptide (#3), time 9.82): 2.97 10^6 cells/ml; viable cell density (1.4 mM dipeptide (#3), time 10.99): 5.25 10^6 cells/ml; viable cell density (1.4 mM dipeptide (#3), time 12.02): 8.29 10^6 cells/ml; viable cell density (1.4 mM dipeptide (#3), time 12.75): 9.23 10^6 cells/ml; viable cell density (1.4 mM dipeptide (#3), time 13.89): 8.975 10^6 cells/ml; viable cell density (1.4 mM dipeptide (#3), time 14.74): 9.58 10^6 cells/ml; viable cell density (1.4 mM dipeptide (#3), time 15.79): 9.535 10^6 cells/ml; viable cell density (1.4 mM dipeptide (#3), time 16.89): 7.395 10^6 cells/ml; viable cell density (1.4 mM dipeptide (#3), time 18.06): 5.985 10^6 cells/ml; viable cell density (4.3 mM dipeptide (#2), time 0): 0.27 10^6 cells/ml; viable cell density (4.3 mM dipeptide (#2), time 0.89): 0.51 10^6 cells/ml; viable cell density (4.3 mM dipeptide (#2), time 3.08): 1.615 10^6 cells/ml; viable cell density (4.3 mM dipeptide (#2), time 3.71): 2.13 10^6 cells/ml; viable cell density (4.3 mM dipeptide (#2), time 4.08): 0.3 10^6 cells/ml; viable cell density (4.3 mM dipeptide (#2), time 4.70): 0.54 10^6 cells/ml; viable cell density (4.3 mM dipeptide (#2), time 5.69): 1.545 10^6 cells/ml; viable cell density (4.3 mM dipeptide (#2), time 6.88): 3.555 10^6 cells/ml; viable cell density (4.3 mM dipeptide (#2), time 7.04): 0.305 10^6 cells/ml; viable cell density (4.3 mM dipeptide (#2), time 7.80): 1.045 10^6 cells/ml; viable cell density (4.3 mM dipeptide (#2), time 8.78): 1.545 10^6 cells/ml; viable cell density (4.3 mM dipeptide (#2), time 9.82): 2.8 10^6 cells/ml; viable cell density (4.3 mM dipeptide (#2), time 10.99): 5.115 10^6 cells/ml; viable cell density (4.3 mM dipeptide (#2), time 12.02): 7.215 10^6 cells/ml; viable cell density (4.3 mM dipeptide (#2), time 12.75): 9.42 10^6 cells/ml; viable cell density (4.3 mM dipeptide (#2), time 13.89): 9.645 10^6 cells/ml; viable cell density (4.3 mM dipeptide (#2), time 14.74): 9.985 10^6 cells/ml; viable cell density (4.3 mM dipeptide (#2), time 15.79): 11.08 10^6 cells/ml; viable cell density (4.3 mM dipeptide (#2), time 16.89): 9.195 10^6 cells/ml; viable cell density (4.3 mM dipeptide (#2), time 18.06): 8.905 10^6 cells/ml; viable cell density (5.4 mM dipeptide (#1), time 0): 0.28 10^6 cells/ml; viable cell density (5.4 mM dipeptide (#1), time 0.89): 0.59 10^6 cells/ml; viable cell density (5.4 mM dipeptide (#1), time 3.08): 1.38 10^6 cells/ml; viable cell density (5.4 mM dipeptide (#1), time 3.71): 1.64 10^6 cells/ml; viable cell density (5.4 mM dipeptide (#1), time 4.08): 0.365 10^6 cells/ml; viable cell density (5.4 mM dipeptide (#1), time 4.70): 0.56 10^6 cells/ml; viable cell density (5.4 mM dipeptide (#1), time 5.69): 1.33 10^6 cells/ml; viable cell density (5.4 mM dipeptide (#1), time 6.88): 3.16 10^6 cells/ml; viable cell density (5.4 mM dipeptide (#1), time 7.04): 0.335 10^6 cells/ml; viable cell density (5.4 mM dipeptide (#1), time 7.80): 0.665 10^6 cells/ml; viable cell density (5.4 mM dipeptide (#1), time 8.78): 1.26 10^6 cells/ml; viable cell density (5.4 mM dipeptide (#1), time 9.82): 2.67 10^6 cells/ml; viable cell density (5.4 mM dipeptide (#1), time 10.99): 3.57 10^6 cells/ml; viable cell density (5.4 mM dipeptide (#1), time 12.02): 4.91 10^6 cells/ml; viable cell density (5.4 mM dipeptide (#1), time 12.75): 6.415 10^6 cells/ml; viable cell density (5.4 mM dipeptide (#1), time 13.89): 8.285 10^6 cells/ml; viable cell density (5.4 mM dipeptide (#1), time 14.74): 11.695 10^6 cells/ml; viable cell density (5.4 mM dipeptide (#1), time 15.79): 10.075 10^6 cells/ml; viable cell density (5.4 mM dipeptide (#1), time 16.89): 7.995 10^6 cells/ml; viable cell density (5.4 mM dipeptide (#1), time 18.06): 6.6 10^6 cells/ml; maximum viable cell density (third passage) (cultivation #1, all Asn provided in the form of the dipeptide (5.4 mM), compared among cultivations #1-6): greatest

From patent US20240409886A1, “CULTURE MEDIUM COMPRISING DIPEPTIDES” (Evonik Operations GmbH, priority 2017, published 2024)
